Reference: ChEMBL document CHEMBL1201862, “PubChem BioAssay data set” (2004)
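Results reflect a 48-hour exposure of cells in 96-well plates to compound at five concentrations. At the GI50, growth is halved.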 The source made the active and inactive calls. No stated cut-off is given here; in the data, active = GI50 up to about 1.1 µM and inactive = higher.

Legend:
Assay in all cases: NCI-60 cell line screen, 48 h
NCI-H460 = test system: NCI-H460
SF-295 = test system: SF-295
OVCAR-3 = test system: OVCAR-3
DMS-114 = test system: DMS-114
CCRF-CEM = test system: CCRF-CEM
A549 = test system: A549
MOLT-4 = test system: MOLT-4
HCT-116 = test system: HCT-116
NCI-H226 = test system: NCI-H226
OVCAR-5 = test system: OVCAR-5
UACC-257 = test system: UACC-257
ACHN = test system: ACHN
LOX IMVI = test system: LOX IMVI
SK-MEL-5 = test system: SK-MEL-5
HOP-62 = test system: HOP-62
NCI-H23 = test system: NCI-H23
SR = test system: SR
DLD-1 = test system: DLD-1
KM-20L2 = test system: KM-20L2
SF-268 = test system: SF-268
SW-620 = test system: SW-620
M19-MEL = test system: M19-MEL
M14 = test system: M14
SK-OV-3 = test system: SK-OV-3
IGROV-1 = test system: IGROV-1
HOP-92 = test system: HOP-92
SK-MEL-28 = test system: SK-MEL-28
UO-31 = test system: UO-31
HCC 2998 = test system: HCC 2998
U-251 = test system: U-251
RXF 631 = test system: RXF 631
DMS-273 = test system: DMS-273
LXFL 529 = test system: LXFL 529
OVCAR-8 = test system: OVCAR-8
TK-10 = test system: TK-10
SNB-19 = test system: SNB-19
Malme-3M = test system: Malme-3M
OVCAR-4 = test system: OVCAR-4
CAKI-1 = test system: CAKI-1
A498 = test system: A498
HCT-15 = test system: HCT-15
K562 = test system: K562
HL-60 = test system: HL-60
UACC-62 = test system: UACC-62
SN12C = test system: SN12C
786-0 = test system: 786-0
HT-29 = test system: HT-29
HOP-18 = test system: HOP-18
COLO 205 = test system: COLO 205
RPMI-8226 = test system: RPMI-8226
SF-539 = test system: SF-539
SNB-75 = test system: SNB-75
SK-MEL-2 = test system: SK-MEL-2
NCI-H522 = test system: NCI-H522
KM12 = test system: KM12
EKVX = test system: EKVX
SNB-78 = test system: SNB-78
RXF 393 = test system: RXF 393
XF498 = test system: XF498

For COC1(OC)C2(Cl)C(Cl)=C(Cl)C1(Cl)C1C2C2CC1(C(=O)O)c1ccccc12 (configuration not stated), the GI50 (NCI-H460) was 20.7 µM (inactive), the GI50 (SF-295) was 25.4 µM (inactive) and the GI50 (OVCAR-3) was 18.2 µM (inactive). The GI50 (DMS-114) was 17.5 µM (inactive), the GI50 (CCRF-CEM) was 4.74 µM (inactive) and the GI50 (A549) was 28.1 µM (inactive). For the same compound, the GI50 (MOLT-4) was 13.6 µM (inactive), the GI50 (HCT-116) was 17.5 µM (inactive) and the GI50 (NCI-H226) was 26.2 µM (inactive). The GI50 (OVCAR-5) was > 10 µM (inactive), the GI50 (UACC-257) was 14.6 µM (inactive) and the GI50 (ACHN) was 35.7 µM (inactive). For the same compound, the GI50 (LOX IMVI) was 16.7 µM (inactive), the GI50 (SK-MEL-5) was 15.9 µM (inactive) and the GI50 (HOP-62) was 23.4 µM (inactive). For the same compound, the GI50 (NCI-H23) was 14.3 µM (inactive), the GI50 (SR) was 9.55 µM (inactive) and the GI50 (DLD-1) was 17.8 µM (inactive). The GI50 (KM-20L2) was 24.2 µM (inactive), the GI50 (SF-268) was 27.6 µM (inactive) and the GI50 (SW-620) was 18.8 µM (inactive). The GI50 (M19-MEL) was 18.9 µM (inactive), the GI50 (M14) was 17.9 µM (inactive) and the GI50 (SK-OV-3) was 33.3 µM (inactive). For the same compound, the GI50 (IGROV-1) was 28.8 µM (inactive), the GI50 (HOP-92) was 35.6 µM (inactive) and the GI50 (SK-MEL-28) was 19.4 µM (inactive). The GI50 (UO-31) was 21.9 µM (inactive), the GI50 (HCC 2998) was 22.9 µM (inactive) and the GI50 (U-251) was 18.5 µM (inactive). The GI50 (RXF 631) was 22.4 µM (inactive), the GI50 (DMS-273) was 19 µM (inactive) and the GI50 (LXFL 529) was 14.6 µM (inactive). For the same compound, the GI50 (OVCAR-8) was 27.4 µM (inactive), the GI50 (TK-10) was 29.1 µM (inactive) and the GI50 (SNB-19) was 67.1 µM (inactive). The GI50 (Malme-3M) was 16 µM (inactive), the GI50 (OVCAR-4) was 15 µM (inactive) and the GI50 (CAKI-1) was 31.3 µM (inactive). The GI50 (A498) was 81.1 µM (inactive), the GI50 (HCT-15) was 23.8 µM and the GI50 (K562) was 15.9 µM (inactive). The GI50 (HL-60) was 22.1 µM (inactive), the GI50 (UACC-62) was 16.5 µM (inactive) and the GI50 (SN12C) was 20.5 µM (inactive). The GI50 (786-0) was 16.4 µM (inactive), the GI50 (HT-29) was 30.3 µM (inactive) and the GI50 (HOP-18) was 41.2 µM (inactive). For the same compound, the GI50 (COLO 205) was 23.9 µM (inactive) and the GI50 (RPMI-8226) was 17 µM (inactive).

With NC1=C2C(Br)=CN([C@@H]3O[C@H](CO)[C@@H](O)[C@@H]3O)C2C(=O)N=N1 (some centres not stated) the GI50 (NCI-H460) was 1.49 µM (inactive), the GI50 (SF-295) was 15.8 µM (inactive) and the GI50 (OVCAR-3) was 0.811 µM (active). The GI50 (DMS-114) was 4.94 µM (inactive), the GI50 (CCRF-CEM) was 0.526 µM (active) and the GI50 (A549) was 2.67 µM (inactive). The GI50 (SF-539) was 5.32 µM (inactive), the GI50 (MOLT-4) was 0.395 µM (active) and the GI50 (HCT-116) was 1.82 µM (inactive). For the same compound, the GI50 (NCI-H226) was 18.2 µM (inactive), the GI50 (SNB-75) was 3.78 µM (inactive) and the GI50 (OVCAR-5) was 2.28 µM (inactive). The GI50 (UACC-257) was 22.4 µM (inactive), the GI50 (ACHN) was 9.04 µM (inactive) and the GI50 (LOX IMVI) was 1.03 µM (active). For the same compound, the GI50 (SK-MEL-5) was 11.3 µM (inactive), the GI50 (HOP-62) was 15.1 µM (inactive) and the GI50 (NCI-H23) was 5.58 µM (inactive). The GI50 (SR) was 0.475 µM (active), the GI50 (DLD-1) was 0.76 µM (active) and the GI50 (KM-20L2) was 22.2 µM (inactive). The GI50 (SK-MEL-2) was 14.8 µM (inactive), the GI50 (SF-268) was 9.51 µM (inactive) and the GI50 (SW-620) was 1.15 µM (inactive). The GI50 (M19-MEL) was 15.5 µM (inactive), the GI50 (M14) was 1.27 µM (inactive) and the GI50 (SK-OV-3) was 30.5 µM (inactive). The GI50 (IGROV-1) was 3.99 µM (inactive), the GI50 (HOP-92) was 2.51 µM (inactive) and the GI50 (NCI-H522) was 6.05 µM (inactive). For the same compound, the GI50 (SK-MEL-28) was 7.73 µM (inactive), the GI50 (UO-31) was 4.85 µM (inactive) and the GI50 (HCC 2998) was 5.02 µM (inactive). The GI50 (U-251) was 8.79 µM (inactive), the GI50 (RXF 631) was 0.516 µM (active) and the GI50 (DMS-273) was 1.97 µM (inactive). For the same compound, the GI50 (LXFL 529) was 8.47 µM (inactive), the GI50 (OVCAR-8) was 0.577 µM (active) and the GI50 (TK-10) was 15.4 µM (inactive). The GI50 (KM12) was 7.38 µM (inactive), the GI50 (SNB-19) was 43.1 µM (inactive) and the GI50 (EKVX) was 5.93 µM (inactive). The GI50 (SNB-78) was 30.9 µM (inactive), the GI50 (Malme-3M) was 6.89 µM (inactive) and the GI50 (RXF 393) was 2.28 µM (inactive). For the same compound, the GI50 (OVCAR-4) was 2.44 µM (inactive), the GI50 (CAKI-1) was 0.396 µM (active) and the GI50 (A498) was 40.4 µM (inactive). The GI50 (HCT-15) was 1.25 µM, the GI50 (K562) was 6.67 µM (inactive) and the GI50 (HL-60) was 0.223 µM (active). The GI50 (UACC-62) was 16.6 µM (inactive), the GI50 (SN12C) was 1.64 µM (inactive) and the GI50 (786-0) was 12.4 µM (inactive). For the same compound, the GI50 (HT-29) was 2.42 µM (inactive), the GI50 (HOP-18) was 5.68 µM (inactive) and the GI50 (COLO 205) was 7.93 µM (inactive). The GI50 (RPMI-8226) was 1.94 µM (inactive).

O=C(O)CCNS(=O)(=O)c1ccc([N+](=O)[O-])cc1 was tested, and the GI50 (NCI-H460) was > 100 µM (inactive), the GI50 (SF-295) was > 100 µM (inactive) and the GI50 (OVCAR-3) was > 100 µM (inactive). For the same compound, the GI50 (CCRF-CEM) was > 100 µM (inactive), the GI50 (A549) was > 100 µM (inactive) and the GI50 (SF-539) was > 100 µM (inactive). For the same compound, the GI50 (MOLT-4) was > 100 µM (inactive), the GI50 (NCI-H226) was > 100 µM (inactive) and the GI50 (SNB-75) was > 100 µM (inactive). For the same compound, the GI50 (OVCAR-5) was > 100 µM (inactive), the GI50 (UACC-257) was > 100 µM (inactive) and the GI50 (ACHN) was > 100 µM (inactive). For the same compound, the GI50 (LOX IMVI) was > 100 µM (inactive), the GI50 (SK-MEL-5) was > 100 µM (inactive) and the GI50 (NCI-H23) was > 100 µM (inactive). The GI50 (DLD-1) was > 100 µM (inactive), the GI50 (KM-20L2) was > 100 µM (inactive) and the GI50 (SK-MEL-2) was > 100 µM (inactive). For the same compound, the GI50 (SF-268) was > 100 µM (inactive), the GI50 (SW-620) was > 100 µM (inactive) and the GI50 (M19-MEL) was > 100 µM (inactive). For the same compound, the GI50 (M14) was > 100 µM (inactive), the GI50 (SK-OV-3) was > 100 µM (inactive) and the GI50 (IGROV-1) was > 100 µM (inactive). For the same compound, the GI50 (HOP-92) was > 100 µM (inactive), the GI50 (NCI-H522) was > 100 µM (inactive) and the GI50 (SK-MEL-28) was > 100 µM (inactive). For the same compound, the GI50 (UO-31) was 66.8 µM (inactive), the GI50 (HCC 2998) was > 100 µM (inactive) and the GI50 (U-251) was > 100 µM (inactive). For the same compound, the GI50 (RXF 631) was > 100 µM (inactive), the GI50 (DMS-273) was > 100 µM (inactive) and the GI50 (LXFL 529) was > 100 µM (inactive). The GI50 (OVCAR-8) was > 100 µM (inactive), the GI50 (TK-10) was > 100 µM (inactive) and the GI50 (KM12) was > 100 µM (inactive). The GI50 (SNB-19) was > 100 µM (inactive), the GI50 (EKVX) was > 100 µM (inactive) and the GI50 (XF498) was > 100 µM (inactive). For the same compound, the GI50 (Malme-3M) was > 100 µM (inactive), the GI50 (RXF 393) was > 100 µM (inactive) and the GI50 (OVCAR-4) was > 100 µM (inactive). For the same compound, the GI50 (CAKI-1) was > 100 µM (inactive), the GI50 (A498) was > 100 µM (inactive) and the GI50 (HCT-15) was greater than 100 µM. The GI50 (K562) was > 100 µM (inactive), the GI50 (HL-60) was > 100 µM (inactive) and the GI50 (UACC-62) was > 100 µM (inactive). For the same compound, the GI50 (SN12C) was > 100 µM (inactive), the GI50 (786-0) was > 100 µM (inactive) and the GI50 (HT-29) was > 100 µM (inactive). The GI50 (HOP-18) was > 100 µM (inactive), the GI50 (COLO 205) was > 100 µM (inactive) and the GI50 (RPMI-8226) was > 100 µM (inactive).
